Assay results taken from the supplement of paper PMC10307832.

Columns and labels:
Experiment in all cases: relative viability (nuclei count vs DMSO), 5 days (fraction); higher = more cells survive
[1] = compound: C[As](C)SC[C@H](NC(=O)CC[C@H](N)C(=O)O)C(=O)NCC(=O)O [Darinaparsin] + Cc1cc(Nc2cc(N3CCN(C)CC3)nc(Sc3ccc(NC(=O)C4CC4)cc3)n2)n[nH]1 [Tozasertib] (partner 0.1 µM)
Method in brief: (§1)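 A single step with final 0.05% Triton X-100, 1% formaldehyde and 1 ug/ml Hoechst fixed the cells and stained nuclei 5 days after treatment. Lung cancer cell lines in 1536-well plates had been treated by pin tool the day after seeding with one drug alone or a fixed anchor-drug dose plus five library-drug doses (not always all listed) in √10 steps, and nuclei were counted on 4× images. Relative viability is the ratio of nuclei in treated wells to nuclei in vehicle wells, taken as the median of duplicate plates.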

[2] = compound: C[As](C)SC[C@H](NC(=O)CC[C@H](N)C(=O)O)C(=O)NCC(=O)O [Darinaparsin] + COc1cc2c(Oc3ccc(NC(=O)C4(C(=O)Nc5ccc(F)cc5)CC4)cc3F)ccnc2cc1OCCCN1CCOCC1 [Foretinib] (partner 0.25 µM)
Method in brief: as §1

[3] = compound: C[As](C)SC[C@H](NC(=O)CC[C@H](N)C(=O)O)C(=O)NCC(=O)O [Darinaparsin] + Cc1nc(NC(=O)N2CCC[C@H]2C(N)=O)sc1-c1ccnc(C(C)(C)C(F)(F)F)c1 [Alpelisib] (partner 2 µM)
Method in brief: as §1

[4] = compound: C[As](C)SC[C@H](NC(=O)CC[C@H](N)C(=O)O)C(=O)NCC(=O)O [Darinaparsin] + C[C@@H](Oc1cc(-c2cnn(C3CCNCC3)c2)cnc1N)c1c(Cl)ccc(F)c1Cl [Crizotinib] (partner 1 µM)
Method in brief: as §1

[5] = compound: C[As](C)SC[C@H](NC(=O)CC[C@H](N)C(=O)O)C(=O)NCC(=O)O [Darinaparsin] + COc1cccc2cc(-c3nc([C@H]4CC[C@H](C(=O)O)CC4)n4ncnc(N)c34)[nH]c12 [OSI-027] (partner 0.5 µM)
Method in brief: as §1

Row | Cell Line | relative viability ([1]; first compound 0.08 µM) | relative viability ([1]; first compound 0.8 µM) | relative viability ([1]; first compound 2.53 µM) | relative viability ([1]; first compound 8 µM) | relative viability ([2]; first compound 0.08 µM) | relative viability ([2]; first compound 0.8 µM) | relative viability ([2]; first compound 2.53 µM) | relative viability ([2]; first compound 8 µM) | relative viability ([3]; first compound 0.08 µM) | relative viability ([3]; first compound 0.8 µM) | relative viability ([3]; first compound 2.53 µM) | relative viability ([3]; first compound 8 µM) | relative viability ([4]; first compound 0.08 µM) | relative viability ([4]; first compound 0.8 µM) | relative viability ([4]; first compound 2.53 µM) | relative viability ([4]; first compound 8 µM) | relative viability ([5]; first compound 0.08 µM) | relative viability ([5]; first compound 0.8 µM) | relative viability ([5]; first compound 2.53 µM) | relative viability ([5]; first compound 8 µM)
1 | NCI-H1975 | 1.12 | 0.804 | 0.783 | 0.905 | 1.13 | 0.994 | 0.975 | 1.12 | 0.758 | 0.777 | 0.483 | 0.704 | 1.13 | 1.12 | 0.879 | 1.42 | 0.971 | 0.742 | 0.544 | 0.961
2 | BEN | 0.489 | 0.498 | 0.463 | 0.444 | 0.668 | 0.708 | 0.621 | 0.691 | 0.963 | 1.09 | 0.956 | 1.33 | 0.956 | 1.01 | 0.741 | 1.17 | 0.312 | 0.306 | 0.281 | 0.299
3 | NCI-H1437 | 0.439 | 0.394 | 0.353 | 0.434 | 1.35 | 1.3 | 1.24 | 1.32 | 1.17 | 0.942 | 0.92 | 1.16 | 1.23 | 0.865 | 0.716 | 1.32 | 0.955 | 0.897 | 0.935 | 1.01
4 | NCI-H1734 | 0.276 | 0.257 | 0.256 | 0.297 | 1.04 | 0.801 | 0.815 | 0.99 | 0.829 | 0.67 | 0.669 | 0.766 | 0.892 | 0.724 | 0.686 | 0.736 | 0.684 | 0.595 | 0.621 | 0.739
5 | NCI-H596 | 1.13 | 0.958 | 0.872 | 0.979 | 0.906 | 0.974 | 0.734 | 0.67 | 0.511 | 0.621 | 0.421 | 0.602 | 1.08 | 0.999 | 0.765 | 0.982 | 0.766 | 0.845 | 0.647 | 0.762
6 | LOU-NH91 | 0.743 | 0.647 | 0.666 | 0.761 | 0.926 | 0.92 | 0.961 | 0.954 | 0.703 | 0.718 | 0.749 | 0.68 | 0.779 | 0.759 | 0.75 | 0.737 | 0.74 | 0.689 | 0.711 | 0.79
7 | NCI-H2342 | 0.545 | 0.443 | 0.53 | 0.44 | 0.959 | 1.04 | 1.03 | 1.17 |  |  |  |  |  |  |  |  | 0.592 | 0.593 | 0.558 | 0.654
8 | NCI-H522 | 0.508 | 0.602 | 0.534 | 0.599 |  |  |  |  |  |  |  |  |  |  |  |  | 0.617 | 0.644 | 0.623 | 0.712
9 | SK-MES-1 | 1.08 | 0.854 | 0.74 | 0.968 | 1.05 | 0.808 | 0.595 | 1.05 | 1.01 | 0.909 | 0.63 | 0.993 | 1.19 | 1.04 | 0.838 | 1.11 | 0.627 | 0.743 | 0.561 | 0.819
10 | UMC-11 | 0.215 | 0.211 | 0.211 | 0.188 | 1.16 | 1.03 | 0.974 | 1.25 | 0.861 | 0.981 | 0.683 | 1.15 | 0.678 | 0.577 | 0.407 | 0.559 | 0.543 | 0.529 | 0.414 | 0.592
11 | LK-2 | 0.203 |  | 0.177 | 0.175 | 1.98 |  | 0.769 | 1.83 | 1.37 |  | 1.31 | 1.42 | 0.208 |  | 0.208 | 0.196 | 0.188 | 0.19 | 0.181 | 0.199
12 | CAL-12T | 0.343 | 0.3 | 0.326 | 0.341 | 1.23 | 0.983 | 1.12 | 1.14 | 1.41 | 1.01 | 1.28 | 1.89 | 0.902 | 0.752 | 0.391 | 0.707 | 0.756 | 0.539 | 0.737 | 0.569
13 | PC-3 [JPC-3] | 1.08 | 0.996 | 0.739 | 1.1 | 1.13 | 1.03 | 1.1 | 1.13 | 1.02 | 0.982 | 0.992 | 1.11 | 0.976 | 0.948 | 0.973 | 0.849 | 0.844 | 0.781 | 0.734 | 0.788
14 | NCI-H1651 | 0.911 | 0.739 | 0.633 | 0.918 | 0.951 | 0.885 | 0.851 | 0.777 | 1.11 | 0.994 | 0.931 | 1.27 | 0.87 | 0.895 | 0.845 | 1.07 | 0.78 | 0.753 | 0.619 | 0.822
15 | NCI-H650 | 0.788 | 0.693 | 0.792 | 0.807 | 1.09 | 1.05 | 1.13 | 1.03 | 1.17 | 1.15 | 1.27 | 1.31 | 0.861 | 0.574 | 0.683 | 0.899 | 0.584 | 0.531 | 0.533 | 0.604
16 | HOP-62 | 0.352 | 0.414 | 0.343 | 0.354 | 1.2 | 1.16 | 0.969 | 1.13 | 1.24 | 0.755 | 0.786 | 0.991 | 1.02 | 1.05 | 1.05 | 1.06 | 0.958 | 0.852 | 0.694 | 0.855
17 | LC-2-ad | 0.49 | 0.425 | 0.329 | 0.35 | 0.949 | 1.02 | 0.987 | 0.836 | 0.954 | 0.832 | 0.856 | 1.01 | 0.524 | 0.459 | 0.447 | 0.383 | 0.877 | 0.762 | 0.67 | 0.759
